Experimental data reported in US20250387400A1, “TYK2 INHIBITORS” (BIOGEN MA INC., priority 2022, published 2025).
Structures can show the parent of a compound that is named as a salt. Where two headings read alike, the source gives them in different places.

Key:
Type in all cases: biochemical
[1] = target: T1, catalytic kinase (JH1) domain of human JAK1 (Homo sapiens, UniProt P23458); experiment: ADP-Glo kinase assay, JAK1 kinase domain
T1 construct: 4 nM of recombinant JAK1 kinase domain is used to phosphorylate
T1 sequence (P23458 875-1153 limits assumed): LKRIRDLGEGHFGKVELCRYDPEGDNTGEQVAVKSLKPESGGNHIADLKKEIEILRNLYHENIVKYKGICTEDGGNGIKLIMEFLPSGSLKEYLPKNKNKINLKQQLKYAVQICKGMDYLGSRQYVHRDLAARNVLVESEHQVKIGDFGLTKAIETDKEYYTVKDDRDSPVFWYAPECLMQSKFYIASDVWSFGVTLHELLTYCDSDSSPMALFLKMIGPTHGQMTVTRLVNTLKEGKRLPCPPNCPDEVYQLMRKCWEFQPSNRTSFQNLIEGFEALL
Method: (§1) As summarized in Table 3 below, compounds of the disclosure were assessed for their ability to inhibit TYK2, JAK1, JAK2, and JAK3 activity.
(§2) The kinase activity of recombinantly generated catalytic kinase (also known as JH1) domain of human JAK1, JAK2, JAK3 and TYK2 were evaluated in a plate-based assay using the ADP-Glo™ Kinase Assay platform. […] The reactions proceed for 100 minutes and the catalytic activity is quantified by first depleting the unused ATP, converting the hydrolyzed ADP into ATP to generate luminescence in a luciferase reaction; which is the basis of the ADP-Glo platform. Compounds are tested at either 10 μM or 1 μM top concentration, 11 points of 3-fold dilution. The data is normalized and the percent activity versus log concentration of compound is fitted with a 4-parameter logistic model to generate a curve and an IC50 value.

[2] = target: T2, catalytic kinase (JH1) domain of human JAK3 (Homo sapiens, UniProt P52333); experiment: ADP-Glo kinase assay, JAK3 kinase domain
T2 construct: Catalytic activities of recombinant JAK2, JAK3 and TYK2 kinase domain
T2 sequence (P52333 822-1111 limits assumed): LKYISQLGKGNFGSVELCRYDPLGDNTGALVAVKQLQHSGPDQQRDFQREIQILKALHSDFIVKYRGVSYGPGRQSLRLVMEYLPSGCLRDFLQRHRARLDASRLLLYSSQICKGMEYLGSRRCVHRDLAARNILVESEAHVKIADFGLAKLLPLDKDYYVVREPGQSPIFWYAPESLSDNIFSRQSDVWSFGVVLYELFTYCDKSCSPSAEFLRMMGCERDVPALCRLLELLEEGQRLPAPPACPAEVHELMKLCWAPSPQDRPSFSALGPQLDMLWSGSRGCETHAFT
Method: as §1, §2

[3] = target: T3, catalytic kinase (JH1) domain of human JAK2 (Homo sapiens, UniProt O60674); experiment: ADP-Glo kinase assay, JAK2 kinase domain
T3 construct: Catalytic activities of recombinant JAK2, JAK3 and TYK2 kinase domain
T3 sequence (O60674 849-1124 limits assumed): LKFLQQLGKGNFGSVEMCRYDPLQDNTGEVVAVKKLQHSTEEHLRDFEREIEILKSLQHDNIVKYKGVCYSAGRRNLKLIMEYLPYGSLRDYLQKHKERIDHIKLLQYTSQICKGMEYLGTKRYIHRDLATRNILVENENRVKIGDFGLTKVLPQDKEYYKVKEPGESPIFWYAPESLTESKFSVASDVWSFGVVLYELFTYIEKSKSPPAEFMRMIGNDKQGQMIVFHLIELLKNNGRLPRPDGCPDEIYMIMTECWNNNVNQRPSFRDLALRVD
Method: as §1, §2

[4] = target: T4, catalytic kinase (JH1) domain of human TYK2 (Homo sapiens, UniProt P29597); experiment: ADP-Glo kinase assay, TYK2 kinase domain
T4 construct: recombinantly generated catalytic kinase (also known as JH1) domain of human JAK1, JAK2, JAK3 and TYK2
T4 sequence (P29597 897-1176 limits assumed): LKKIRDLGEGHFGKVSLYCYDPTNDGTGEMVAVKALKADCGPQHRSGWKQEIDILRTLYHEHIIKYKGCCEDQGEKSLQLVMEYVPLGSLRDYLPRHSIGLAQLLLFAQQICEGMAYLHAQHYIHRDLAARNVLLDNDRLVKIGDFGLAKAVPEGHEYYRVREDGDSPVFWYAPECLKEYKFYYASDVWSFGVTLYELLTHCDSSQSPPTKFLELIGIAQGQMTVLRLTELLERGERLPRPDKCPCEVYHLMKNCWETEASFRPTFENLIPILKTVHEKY
Method: as §1, §2

[5] = 4 nM recombinant JAK1 kinase domain, 50 μM JAK3-342 peptide, 35 μM ATP, 100 minutes, read-out: JAK1 biochem IC50 (nM) Mean
[6] = 0.3 nM recombinant JAK3 kinase domain, 50 μM JAK3-974 peptide, 4 μM ATP, 100 minutes, read-out: JAK3 biochem IC50 (nM) Mean
[7] = 0.2 nM recombinant JAK2 kinase domain, 50 μM JAK3-974 peptide, 15 μM ATP, 100 minutes, read-out: JAK2 biochem IC50 (nM) Mean
[8] = 2 nM recombinant TYK2 kinase domain, 50 μM JAK3-974 peptide, 10 μM ATP, 100 minutes, read-out: TYK2 biochem IC50 (nM) Mean

| IC50 [1, 5] | IC50 [2, 6] | IC50 [3, 7] | IC50 [4, 8] | SMILES | IC50 [1] | IC50 [2] | IC50 [3] | IC50 [4] |
| --- | --- | --- | --- | --- | --- | --- | --- | --- |
| 7100 nM | > 10000 nM | 3150 nM | 830 nM | Cn1cc(-c2nc3c(N4CC5CCC(C4)N5[C@H]4CC[C@H]4O)ccnc3[nH]2)cn1 (racemic) [Example 8, (1RS,2SR)-2-(3-(2-(1-methyl-1H-pyrazol-4-yl)-3H-imidazo[4,5-b]pyridin-7-yl)-3,8-diazabicyclo[3.2.1]octan-8-yl)cyclobutan-1-ol] |  |  |  |  |
| > 10000 nM | > 10000 nM | 7700 nM | 425 nM | Cn1cc(-c2cc3c(N4CC5CCC(C4)N5[C@H]4CC[C@@H]4O)ccnn3c2)cn1 (racemic) [Example 49, rac-(1S,2S)-2-(3-(6-(1-methyl-1H-pyrazol-4-yl)pyrrolo[1,2-b]pyridazin-4-yl)-3,8-diazabicyclo[3.2.1]octan-8-yl)cyclobutan-1-ol] |  |  |  |  |
| > 10000 nM | > 10000 nM | 7350 nM | 505 nM | Cn1cc(-c2cc3c(N4CC5CCC(C4)N5[C@H]4CC[C@H]4O)ccnn3c2)cn1 (racemic) [Example 50, rac-(1R,2S)-2-(3-(6-(1-methyl-1H-pyrazol-4-yl)pyrrolo[1,2-b]pyridazin-4-yl)-3,8-diazabicyclo[3.2.1]octan-8-yl)cyclobutan-1-ol] |  |  |  |  |
|  |  |  |  | CO[C@H]1CC[C@@H]1N1C2CCC1CN(c1ccnn3cc(-c4cnn(C)c4)cc13)C2 (racemic) [Example 51, Rac-4-(8-((1S,2S)-2-methoxycyclobutyl)-3,8-diazabicyclo[3.2.1]octan-3-yl)-6-(1-methyl-1H-pyrazol-4-yl)pyrrolo[1,2-b]pyridazine] | > 10000 nM | > 10000 nM | 6050 nM | 745 nM |
| > 10000 nM | > 10000 nM | 3300 nM | 610 nM | Cn1cc(-c2nc3c(N4CC5CCC(C4)N5[C@H]4CC[C@@H]4O)ccnc3[nH]2)cn1 (single isomer, unassigned) [Example 7, (1RS,2RS)-2-(3-(2-(1-methyl-1H-pyrazol-4-yl)-3H-imidazo[4,5-b]pyridin-7-yl)-3,8-diazabicyclo[3.2.1]octan-8-yl)cyclobutan-1-ol] |  |  |  |  |
|  |  |  |  | Cn1cc(-c2cc3c(N4CC5CCC(C4)N5[C@H]4CCC45COC5)ccnn3c2)cn1 (single isomer, unassigned) [Example 40] | > 10000 nM | > 10000 nM | 1900 nM | 320 nM |
|  |  |  |  | Cn1cc(-c2cc3c(N4CC5CCC(C4)N5[C@@H]4CCC45COC5)ccnn3c2)cn1 (single isomer, unassigned) [Example 41] | 2200 nM | 8450 nM | 420 nM | 71 nM |
|  |  |  |  | Cn1cc(-c2cc3c(N4CC5CCC(C4)N5[C@H]4C[C@H](C#N)C4(C)C)ccnn3c2)cn1 (single isomer, unassigned) [Example 46] | 955 nM | 1850 nM | 215 nM | 34 nM |
|  |  |  |  | Cn1cc(-c2cc3c(N4CC5CCC(C4)N5[C@H]4C[C@@H](C#N)C4(C)C)ccnn3c2)cn1 (single isomer, unassigned) [Example 47] | 72.3 nM | 130 nM | 17.3 nM | 2.33 nM |
|  |  |  |  | Cn1cc(-c2cc3c(N4CC5CCC(C4)N5[C@@H]4C[C@H](C#N)C4(C)C)ccnn3c2)cn1 (single isomer, unassigned) [Example 48] | 925 nM | 1350 nM | 180 nM | 35 nM |
| 175 nM | 850 nM | 102 nM | 13.4 nM | Cn1cc(-c2nc3c(N4CC5CCC(C4)N5[C@H]4C[C@](C)(C#N)C4)ccnc3[nH]2)cn1 [Example 1, (1R,3r)-1-methyl-3-(3-(2-(1-methyl-1H-pyrazol-4-yl)-3H-imidazo[4,5-b]pyridin-7-yl)-3,8-diazabicyclo[3.2.1]octan-8-yl)cyclobutane-1-carbonitrile] |  |  |  |  |
| 430 nM | 1450 nM | 236 nM | 44 nM | Cn1cc(-c2nc3c(N4CC5CCC(C4)N5[C@H]4C[C@H](C#N)C4)ccnc3[nH]2)cn1 [Example 3, (1R,3r)-3-(3-(2-(1-methyl-1H-pyrazol-4-yl)-3H-imidazo[4,5-b]pyridin-7-yl)-3,8-diazabicyclo[3.2.1]octan-8-yl)cyclobutane-1-carbonitrile] |  |  |  |  |
| 18.7 nM | 65.3 nM | 9.93 nM | 2.47 nM | Cn1cc(-c2nc3c(N4CC5CCC(C4)N5[C@H]4C[C@@H](C#N)C4)ccnc3[nH]2)cn1 [Example 4, (1S,3s)-3-(3-(2-(1-methyl-1H-pyrazol-4-yl)-3H-imidazo[4,5-b]pyridin-7-yl)-3,8-diazabicyclo[3.2.1]octan-8-yl)cyclobutane-1-carbonitrile] |  |  |  |  |
| 900 nM | 9700 nM | 870 nM | 145 nM | CO[C@H]1C[C@H](N2C3CCC2CN(c2ccnc4[nH]c(-c5cnn(C)c5)nc24)C3)C1 [Example 5, 7-(8-((1r,3R)-3-methoxycyclobutyl)-3,8-diazabicyclo[3.2.1]octan-3-yl)-2-(1-methyl-1H-pyrazol-4-yl)-3H-imidazo[4,5-b]pyridine] |  |  |  |  |
| 1800 nM | > 10000 nM | 1150 nM | 305 nM | CO[C@H]1C[C@@H](N2C3CCC2CN(c2ccnc4[nH]c(-c5cnn(C)c5)nc24)C3)C1 [Example 6, 7-(8-((1s,3S)-3-methoxycyclobutyl)-3,8-diazabicyclo[3.2.1]octan-3-yl)-2-(1-methyl-1H-pyrazol-4-yl)-3H-imidazo[4,5-b]pyridine] |  |  |  |  |
|  |  |  |  | Cn1cc(-c2nc3c(N4CC5CCC(C4)N5C4COC4)ccnc3[nH]2)cn1 [Example 9, 2-(1-methyl-1H-pyrazol-4-yl)-7-(8-(oxetan-3-yl)-3,8-diazabicyclo[3.2.1]octan-3-yl)-3H-imidazo[4,5-b]pyridine] | 275 nM | > 1000 nM | 220 nM | 42.5 nM |
| 340 nM | 1350 nM | 180 nM | 226 nM | Cn1cc(-c2nc3c(N4C[C@H]5CC[C@@H](C4)N5C4CC(C(F)F)C4)ccnc3[nH]2)cn1 (stereo partly drawn) [Example 10, 7-((1R,5S)-8-(3-(difluoromethyl)cyclobutyl)-3,8-diazabicyclo[3.2.1]octan-3-yl)-2-(1-methyl-1H-pyrazol-4-yl)-3H-imidazo[4,5-b]pyridine] |  |  |  |  |
| 970 nM | > 5000 nM | 635 nM | 330 nM | Cn1cc(-c2nc3c(N4CC5CCC(C4)N5C4CNC4)ccnc3[nH]2)cn1 [Example 11, 7-(8-(azetidin-3-yl)-3,8-diazabicyclo[3.2.1]octan-3-yl)-2-(1-methyl-1H-pyrazol-4-yl)-3H-imidazo[4,5-b]pyridine hydrochloride] |  |  |  |  |
| 2850 nM | > 10000 nM | 2300 nM | 580 nM | CN1CC(N2C3CCC2CN(c2ccnc4[nH]c(-c5cnn(C)c5)nc24)C3)C1 [Example 12, 2-(1-methyl-1H-pyrazol-4-yl)-7-(8-(1-methylazetidin-3-yl)-3,8-diazabicyclo[3.2.1]octan-3-yl)-3H-imidazo[4,5-b]pyridine trifluoroacetate] |  |  |  |  |
|  |  |  |  | COc1cc(-c2cc3c(N4CC5CCC(C4)N5C4CC(C#N)C4)ccnc3[nH]2)ccn1 (stereo not shown) [Example 13, 3-(3-(2-(2-methoxypyridin-4-yl)-1H-pyrrolo[2,3-b]pyridin-4-yl)-3,8-diazabicyclo[3.2.1]octan-8-yl)cyclobutane-1-carbonitrile] | 7.9 nM | 82 nM | 14 nM | 4.05 nM |
|  |  |  |  | COc1cc(-c2cc3c(N4CC5CCC(C4)N5[C@H]4C[C@@H](C#N)C4)ccnc3[nH]2)ccn1 [Example 14, (1S,3s)-3-(3-(2-(2-methoxypyridin-4-yl)-1H-pyrrolo[2,3-b]pyridin-4-yl)-3,8-diazabicyclo[3.2.1]octan-8-yl)cyclobutane-1-carbonitrile] | 205 nM | 1800 nM | 170 nM | 21.5 nM |

| SMILES | IC50 [1, 5] | IC50 [2, 6] | IC50 [3, 7] | IC50 [4, 8] | IC50 [1] | IC50 [2] | IC50 [3] | IC50 [4] |
| --- | --- | --- | --- | --- | --- | --- | --- | --- |
| Cn1cc(-c2nc3c(N4CC5CCC(C4)N5[C@H]4C[C@@](C)(C#N)C4)ccnc3[nH]2)cn1 [Example 2, (1S,3s)-1-methyl-3-(3-(2-(1-methyl-1H-pyrazol-4-yl)-3H-imidazo[4,5-b]pyridin-7-yl)-3,8-diazabicyclo[3.2.1]octan-8-yl)cyclobutane-1-carbonitrile] | 14.7 nM | 68 nM | 9 nM | 1.2 nM |  |  |  |  |
